Measurements from ChEMBL document CHEMBL4411258, “Novel natural compounds from endophytic fungi with anticancer activity” (Eur J Med Chem, 2018).
In brackets after ≈: the same amount, converted by molar mass.

Tests used:
L5178Y = assay: Cytotoxicity against mouse L5178Y cells by MTT assay; assay type: functional, cell-based
PC-3 = assay: Cytotoxicity against human PC3 cells by MTT assay; assay type: functional, cell-based
L02 = assay: Cytotoxicity against human L02 cells by MTS assay; assay type: cell-based
HepG2 [1] = assay: Cytotoxicity against human HepG2 cells by MTT assay; assay type: functional, cell-based
HepG2 [2] = assay: Cytotoxicity against human HepG2 cells after 48 hrs by sulforhodamine B assay; assay type: functional, cell-based
MCF7 [3] = assay: Cytotoxicity against human MCF7 cells after 48 hrs by sulforhodamine B assay; assay type: functional, cell-based
NCI-H460 = assay: Cytotoxicity against human NCI-H460 cells after 48 hrs by sulforhodamine B assay; assay type: functional, cell-based
SF-268 = assay: Cytotoxicity against human SF268 cells after 48 hrs by sulforhodamine B assay; assay type: functional, cell-based
HL-60 [4] = assay: Cytotoxicity against human HL60 cells by trypan blue staining based assay; assay type: functional, cell-based
HeLa = assay: Cytotoxicity against human HeLa cells by MTS assay; assay type: functional, cell-based
A549 [5] = assay: Cytotoxicity against human A549 cells by MTS assay; assay type: functional, cell-based
Huh-7 = assay: Cytotoxicity against human HuH7 cells by MTS assay; assay type: functional, cell-based
MCF7 [6] = assay: Cytotoxicity against human MCF7 cells by MTS assay; assay type: functional, cell-based
[7] = Cytotoxicity against mouse LM3 cells by MTS assay; assay type: functional, cell-based
NCI-H446 = assay: Cytotoxicity against human NCI-H446 cells by MTS assay; assay type: functional, cell-based
SW1990 = assay: Cytotoxicity against human SW1990 cells by MTS assay; assay type: functional, cell-based
MCF7 [8] = assay: Cytotoxicity against human MCF7 cells by MTT assay; assay type: functional, cell-based
A549 [9] = assay: Cytotoxicity against human A549 cells by MTT assay; assay type: functional, cell-based
HepG2 [10] = assay: Cytotoxicity against human HepG2 cells after 72 hrs by MTT assay; assay type: functional, cell-based; details: HepG2, 72 h
MCF7 [11] = assay: Cytotoxicity against human MCF7 cells after 72 hrs by MTT assay; assay type: functional, cell-based; details: MCF7, 72 h
A549 [12] = assay: Cytotoxicity against human A549 cells after 72 hrs by MTT assay; assay type: functional, cell-based; details: A549, 72 h
HL-60 [13] = assay: Cytotoxicity against human HL60 cells after 72 hrs by MTT assay; assay type: functional, cell-based; details: HL-60, 72 h
Raji = assay: Cytotoxicity against human Raji cells after 72 hrs by MTT assay; assay type: functional, cell-based
SK-OV-3 = assay: Cytotoxicity against human SKOV3 cells after 48 hrs by neutral red dye based assay; assay type: functional, cell-based; details: SK-OV-3, 48 h
BT-549 = assay: Cytotoxicity against human BT549 cells after 48 hrs by neutral red dye based assay; assay type: functional, cell-based; details: BT-549, 48 h
Vero = assay: Cytotoxicity against African green monkey Vero cells by resazurin microplate assay; assay type: cell-based; details: Chlorocebus sabaeus
NCI-H187 = assay: Cytotoxicity against human NCI-H187 cells by resazurin microplate assay; assay type: functional, cell-based
[14] = Cytotoxicity against human KATO III cells after 72 hrs by MTT assay; assay type: functional, cell-based
[15] = Inhibition of RANKL-induced NFkappaB (unknown origin) activation expressed in mouse RAW264.7 cells preincubated for 1 hr followed by RANKL stimulation and measured after 6 hrs by luciferase reporter gene based assay; assay type: cell-based

CC[C@@H](C)C[C@H](/C=C(\C)[C@H](O)[C@H](C)/C=C(\C)[C@H](O)[C@H](C)/C=C/[C@H](O)[C@H](C)/C=C(\C)C=O)CO
IC50 (L5178Y): 4.1 µM

CC(C)CCC[C@@H](C)[C@H]1CC[C@H]2[C@@H]3CC[C@H]4C[C@@H](O[C@@H]5O[C@H](CO)[C@@H](O)[C@H](O)[C@H]5O)CC[C@]4(C)[C@H]3CC[C@]12C
IC50 (PC-3): 6.1 µM | IC50 (L02): 4.7 µM | IC50 (HepG2 [1]): 5.5 µM

CCC/C=C/[C@H]1C=CC(=O)[C@H](O)[C@H]1C(=O)C(C)O (stereo partly specified)
IC50 (HepG2 [2]; Homo sapiens, HepG2, 48 h): 46.8 µM | IC50 (MCF7 [3]; Homo sapiens, MCF7, 48 h): 15.7 µM | IC50 (NCI-H460; Homo sapiens, NCI-H460, 48 h): 36.4 µM | IC50 (SF-268; Homo sapiens, SF-268, 48 h): 40.5 µM

CC(C)=CC/C=C(/C)[C@H]1CC[C@@]2(C)OC3=C(C[C@@H]12)C(=O)CC[C@@H]3O
IC50 (HL-60 [4]): 30.6 µM

O=C1CC[C@@H](c2ccc(O)c3c2C(=O)CCC3=O)c2cccc(O)c21
IC50 (HeLa): 1 to 20 µM | IC50 (A549 [5]): 1 to 20 µM | IC50 (L02): 1 to 20 µM | IC50 (Huh-7): 1 to 20 µM | IC50 (MCF7 [6]): 1 to 20 µM | IC50 [7]: 1 to 20 µM | IC50 (NCI-H446): 1 to 20 µM | IC50 (SW1990): 1 to 20 µM

CC(C)=CCCC(C)(O)[C@H]1CC[C@@]2(C)OC3=C(C[C@@H]12)C(=O)[C@@H](O)CC3 (stereo partly specified)
IC50 (HL-60 [4]): 32.5 µM

CC(C)[C@@H]1CC[C@](C)(O)C2=C1C(=O)[C@](C)(O)C[C@@H]2O
IC50 (MCF7 [8]): 5.9 µM | IC50 (A549 [9]): 0.2 µM

COC1=CC(=O)OC2C1[C@H](O)CO[C@H]2O (stereo partly specified)
IC50 (HepG2 [10]): 1 to 26.8 µg/mL | IC50 (MCF7 [11]): 1 to 26.8 µg/mL | IC50 (A549 [12]): 1 to 26.8 µg/mL | IC50 (HL-60 [13]): 1 to 26.8 µg/mL (≈ 4.63 to 124 µM) | IC50 (Raji): 1 to 26.8 µg/mL (≈ 4.63 to 124 µM)

O=C1CC[C@]2(C[C@@H](O)C(=O)O2)c2cccc(O)c21
IC50 (HL-60 [4]): 29.1 µM

COc1cc(=O)oc(CO)c1[C@H](O)CO
IC50 (HepG2 [10]): 1 to 26.8 µg/mL | IC50 (MCF7 [11]): 1 to 26.8 µg/mL | IC50 (A549 [12]): 1 to 26.8 µg/mL | IC50 (HL-60 [13]): 1 to 26.8 µg/mL (≈ 4.63 to 124 µM) | IC50 (Raji): 1 to 26.8 µg/mL (≈ 4.63 to 124 µM)

COc1cc(O)c2c(c1)C(=O)C1=C(C2=O)[C@H](O)[C@@H](O)[C@@](C)(O)C1
IC50 (L5178Y): 9.4 µM

C=C(CC[C@@H](C)[C@H]1CC=C2C3=C([C@@H](O)[C@H](OC(C)=O)[C@@]21C)[C@@]1(C)C[C@@H](O)[C@H](OC(=O)CCCCCCCCCO)C(C)(C)[C@@H]1CC3)C(C)C
IC50 (SK-OV-3): 0.12 µg/mL (≈ 0.175 µM) | IC50 (BT-549): 1.76 µg/mL (≈ 2.57 µM)

C[C@@H]1CC[C@@H]2[C@H](C=C[C@H]3[C@H](/C=C/[C@H](C)O)OC(=O)[C@@]23C)C1
IC50 (Vero): 31.5 µg/mL (≈ 108 µM) | IC50 (NCI-H187): 17.8 µg/mL (≈ 61.2 µM)

C/C1=C\C(=O)OC[C@]23CCC(C(=O)O)=C[C@H]2O[C@@H]2CC(OC(=O)/C=C\C=C\[C@H]([C@H](C)O)OCC1)[C@@]3(C)[C@]21CO1 (stereo partly specified)
IC50 (HepG2 [2]; hepg2): 0.38 µM | IC50 (MCF7 [3]; mcf7): 0.17 µM | IC50 (NCI-H460; nci-h460): 0.36 µM | IC50 (SF-268; sf-268): 0.751 µM

CCC(=O)Cc1c(OC)cc(=O)oc1C
IC50 (HepG2 [10]): 1 to 26.8 µg/mL | IC50 (MCF7 [11]): 1 to 26.8 µg/mL | IC50 (A549 [12]): 1 to 26.8 µg/mL | IC50 (HL-60 [13]): 1 to 26.8 µg/mL (≈ 4.76 to 127 µM) | IC50 (Raji): 1 to 26.8 µg/mL (≈ 4.76 to 127 µM)

C[C@H]1[C@@H](O)CCC(C)(C)[C@@]12CC=C(C(=O)O)CC2
IC50 [14]: 25.3 µM

CCC(=O)Cc1c(OC)cc(=O)oc1CO
IC50 (HepG2 [10]): 1 to 26.8 µg/mL | IC50 (MCF7 [11]): 1 to 26.8 µg/mL | IC50 (A549 [12]): 1 to 26.8 µg/mL | IC50 (HL-60 [13]): 1 to 26.8 µg/mL (≈ 4.42 to 118 µM) | IC50 (Raji): 1 to 26.8 µg/mL (≈ 4.42 to 118 µM)

CO[C@H]1CCC(=O)c2c([C@@H]3CCC(=O)c4c(O)cccc43)ccc(O)c21
IC50 (HeLa): 1 to 20 µM | IC50 (A549 [5]): 1 to 20 µM | IC50 (L02): 1 to 20 µM | IC50 (Huh-7): 1 to 20 µM | IC50 (MCF7 [6]): 1 to 20 µM | IC50 [7]: 1 to 20 µM | IC50 (NCI-H446): 1 to 20 µM | IC50 (SW1990): 1 to 20 µM

CC1=C2C(=C[C@H](O)C(O)=C2O)[C@H](C)[C@@H](C)O1
IC50 (HepG2 [10]): 35.7 µM | IC50 (A549 [12]): 23.7 µM

CO[C@@H]1CCC(=O)c2c([C@@H]3CCC(=O)c4c(O)cccc43)ccc(O)c21
IC50 (HeLa): 1 to 20 µM | IC50 (A549 [5]): 1 to 20 µM | IC50 (L02): 1 to 20 µM | IC50 (Huh-7): 1 to 20 µM | IC50 (MCF7 [6]): 1 to 20 µM | IC50 [7]: 1 to 20 µM | IC50 (NCI-H446): 1 to 20 µM | IC50 (SW1990): 1 to 20 µM

COC(=O)c1cc(OC)cc2c1C(=O)[C@H]([C@@H](O)CC(C)=O)CO2
IC50 [15]: 30 to 46 µM

COc1cc(O)c2c(=O)cc(C)oc2c1[C@H](C[C@@H](OC)C(=O)O)OC
IC50 [14]: 16 µM | IC50 (MCF7 [11]): 17.7 µM

CC[C@H](C)c1[nH]c2c(c1C)C(=O)C1=C(C2=O)[C@@H](O)[C@@H]2[C@@]3(C)CC[C@H](C(C)(C)O)O[C@@H]3CC[C@@]2(C)O1
IC50 (HepG2 [2]; Homo sapiens, HepG2, 48 h): 6.4 to 42.6 µM | IC50 (MCF7 [3]; Homo sapiens, MCF7, 48 h): 6.4 to 42.6 µM | IC50 (NCI-H460; Homo sapiens, NCI-H460, 48 h): 6.4 to 42.6 µM | IC50 (SF-268; Homo sapiens, SF-268, 48 h): 6.4 to 42.6 µM

COc1cc(=O)oc(CO)c1[C@H](C)O
IC50 (HepG2 [10]): 1 to 26.8 µg/mL | IC50 (MCF7 [11]): 1 to 26.8 µg/mL | IC50 (A549 [12]): 1 to 26.8 µg/mL | IC50 (HL-60 [13]): 1 to 26.8 µg/mL (≈ 5 to 134 µM) | IC50 (Raji): 1 to 26.8 µg/mL (≈ 5 to 134 µM)
